Experiment: TIMS collisional cross section (CCS, N2) of the lipid ion; higher = larger ion cross section
Details: ionization mode: negative, one isomer drawn
Description: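 Lipid extracts of human plasma (NIST SRM 1950), mouse liver or HeLa cells were separated by nanoflow C18 LC (30 min gradient) and analysed by TIMS-PASEF on a timsTOF Pro. Ion mobility was calibrated with the Agilent tuning mix (negative mode ions) and converted to collisional cross sections (Mason–Schamp, N2).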

[1] = sample type: Mouse Liver, ion (formula + adduct): [C43H76NO7P-H] 1-
[2] = sample type: Mouse Liver, ion (formula + adduct): [C40H75O10P-H] 1-
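Note: lipids from MTBE extraction, five replicate injections per sample, 100 ms TIMS ramp spanning 0.6–1.95 Vs/cm², lipid identity assigned from PASEF MS/MS spectra.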

CC/C=C\C/C=C\C/C=C\C/C=C\C/C=C\CCCC(=O)O[C@H](COCCCCCCCCCCCCCCCC)COP(=O)(O)OCCN [PE O- 16:0@_20:5]
TIMS collisional cross section (sample type: Human plasma, ion (formula + adduct): [C41H74NO7P+AcO] 1-): 280.1 Å²

CC/C=C\C/C=C\C/C=C\C/C=C\C/C=C\C/C=C\CCC(=O)O[C@H](COCCCCCCCCCCCCCCCC)COP(=O)(O)OCCN [PE O- 16:0@_22:6]
TIMS collisional cross section (sample type: Human plasma, ion (formula + adduct): [C43H76NO7P-H] 1-): 274 Å² | TIMS collisional cross section [1]: 273.4 Å²

CCCCCCCCCCCCCCCCCCOC[C@H](COP(=O)(O)OCCN)OC(=O)CCCCCCCCCCCCCC [PE O- 18:0@_15:0]
TIMS collisional cross section (sample type: Human plasma, ion (formula + adduct): [C38H78NO7P+AcO] 1-): 287.3 Å²

CCCCCCC/C=C\CCCCCCCC(=O)O[C@H](COCCCCCCCCCCCCCCCCCC)COP(=O)(O)OCCN [PE O- 18:0@_17:1]
TIMS collisional cross section (sample type: Human plasma, ion (formula + adduct): [C40H80NO7P+AcO] 1-): 292.4 Å²

CCCCCCCCCCCCCCCCCCOC[C@H](COP(=O)(O)OCCN)OC(=O)CCCCCCCCCCCCCCCCCC [PE O- 18:0@_19:0]
TIMS collisional cross section (sample type: Human plasma, ion (formula + adduct): [C42H86NO7P+AcO] 1-): 298 Å²

CCCCCCCCCCCCCCCCCCOC[C@H](COP(=O)(O)OCCN)OC(=O)CCCCCCCCCCCCCCCC [PE O- 18:0_17:0]
TIMS collisional cross section (sample type: Mouse Liver, ion (formula + adduct): [C40H82NO7P-CH3] 1-): 267.9 Å²

CCCCCCCCC/C=C\CCCCCCCC(=O)O[C@H](COCCCCCCCCCCCCCCCCCCCC)COP(=O)(O)OCCN [PE O- 20:0@_19:1]
TIMS collisional cross section (sample type: Human plasma, ion (formula + adduct): [C44H88NO7P+AcO] 1-): 303.7 Å²

CCCCC/C=C\C/C=C\CCCCCCCC(=O)O[C@H](CO/C=C\CCCCCCCCCCCCCC)COP(=O)(O)OCCN [PE P- 16:0@_18:2]
TIMS collisional cross section (sample type: Human plasma, ion (formula + adduct): [C39H74NO7P-H] 1-): 265.6 Å²

CC/C=C\C/C=C\C/C=C\C/C=C\CCCCC(=O)O[C@H](CO/C=C\CCCCCCCCCCCCCC)COP(=O)(O)OCCN [PE P- 16:0@_18:4]
TIMS collisional cross section (sample type: Human plasma, ion (formula + adduct): [C39H70NO7P+AcO] 1-): 275.7 Å²

CCCCCCCC/C=C\CCCCCCCCCC(=O)O[C@H](CO/C=C\CCCCCCCCCCCCCC)COP(=O)(O)OCCN [PE P- 16:0@_20:1]
TIMS collisional cross section (sample type: Mouse Liver, ion (formula + adduct): [C41H80NO7P-H] 1-): 273.5 Å²

CCCCC/C=C\C/C=C\C/C=C\CCCCCCC(=O)O[C@H](CO/C=C\CCCCCCCCCCCCCC)COP(=O)(O)OCCN [PE P- 16:0@_20:3]
TIMS collisional cross section (sample type: Human plasma, ion (formula + adduct): [C41H76NO7P-H] 1-): 271.2 Å² | TIMS collisional cross section (sample type: Mouse Liver, ion (formula + adduct): [C41H76NO7P-H] 1-): 271.2 Å²

CC/C=C\C/C=C\C/C=C\C/C=C\C/C=C\CCCC(=O)O[C@H](CO/C=C\CCCCCCCCCCCCCC)COP(=O)(O)OCCN [PE P- 16:0@_20:5]
TIMS collisional cross section (sample type: Human plasma, ion (formula + adduct): [C41H72NO7P+AcO] 1-): 283.1 Å² | TIMS collisional cross section (sample type: Human plasma, ion (formula + adduct): [C41H72NO7P-H] 1-): 268.9 Å²

CCCCC/C=C\C/C=C\C/C=C\C/C=C\CCCCCC(=O)O[C@H](CO/C=C\CCCCCCCCCCCCCC)COP(=O)(O)OCCN [PE P- 16:0@_22:4]
TIMS collisional cross section (sample type: Human plasma, ion (formula + adduct): [C43H78NO7P-H] 1-): 276.3 Å²

CC/C=C\C/C=C\C/C=C\C/C=C\C/C=C\C/C=C\CCC(=O)O[C@H](CO/C=C\CCCCCCCCCCCCCC)COP(=O)(O)OCCN [PE P- 16:0@_22:6]
TIMS collisional cross section (sample type: Human plasma, ion (formula + adduct): [C43H74NO7P-H] 1-): 274 Å² | TIMS collisional cross section (sample type: Mouse Liver, ion (formula + adduct): [C43H74NO7P-H] 1-): 274.6 Å²

CCCCC/C=C\C/C=C\C/C=C\C/C=C\CCCC(=O)O[C@H](CO/C=C\CCCCCCCCCCCCCC)COP(=O)(O)OCCN [PE P- 16:0_20:4]
TIMS collisional cross section (sample type: Human plasma, ion (formula + adduct): [C41H74NO7P-H] 1-): 270.1 Å² | TIMS collisional cross section (sample type: Mouse Liver, ion (formula + adduct): [C41H74NO7P-H] 1-): 270.1 Å²

CCCCC/C=C\C/C=C\CCCCCCCC(=O)O[C@H](CO/C=C\CCCCCCCCCCCCCCCC)COP(=O)(O)OCCN [PE P- 18:0@_18:2]
TIMS collisional cross section (sample type: Human plasma, ion (formula + adduct): [C41H78NO7P-CH3] 1-): 269 Å²

CC/C=C\C/C=C\C/C=C\C/C=C\C/C=C\CCCC(=O)O[C@H](CO/C=C\CCCCCCCCCCCCCCCC)COP(=O)(O)OCCN [PE P- 18:0@_20:5]
TIMS collisional cross section [1]: 274.5 Å²

CC/C=C\C/C=C\C/C=C\C/C=C\C/C=C\C/C=C\CCC(=O)O[C@H](CO/C=C\CCCCCCCCCCCCCCCC)COP(=O)(O)OCCN [PE P- 18:0@_22:6]
TIMS collisional cross section (sample type: Human plasma, ion (formula + adduct): [C45H78NO7P-CH3] 1-): 276.8 Å²

CCCCC/C=C\C/C=C\CCCCCCCC(=O)O[C@H](CO/C=C\CCCCCCCCCCCCCCCC)COP(=O)(O)OCCN [PE P- 18:0_18:2]
TIMS collisional cross section (sample type: Human plasma, ion (formula + adduct): [C41H78NO7P-H] 1-): 272.4 Å²

CCCCC/C=C\C/C=C\C/C=C\C/C=C\CCCCCC(=O)O[C@H](CO/C=C\CCCCCCCCCCCCCCCC)COP(=O)(O)OCCN [PE P- 18:0_22:4]
TIMS collisional cross section (sample type: Mouse Liver, ion (formula + adduct): [C45H82NO7P-H] 1-): 281.9 Å²

CC/C=C\C/C=C\C/C=C\C/C=C\C/C=C\C/C=C\CCC(=O)O[C@H](CO/C=C\CCCCCC/C=C\CCCCCCCC)COP(=O)(O)OCCN [PE P- 18:1@_22:6]
TIMS collisional cross section (sample type: Mouse Liver, ion (formula + adduct): [C45H76NO7P-H] 1-): 278.5 Å²

CCCCC/C=C\C/C=C\CCCCCCCC(=O)O[C@H](CO/C=C\CCCCCCCCCCCCCCCCCC)COP(=O)(O)OCCN [PE P- 20:0@_18:2]
TIMS collisional cross section (sample type: Human plasma, ion (formula + adduct): [C43H82NO7P-H] 1-): 278.6 Å²

CCCCCCCCC=CCCCCCCCC(=O)OC(COC(=O)CCCCCCCCCCCCCCC)COP(=O)(O)OCC(O)CO (stereo not given) [PG 16:0_18:1]
TIMS collisional cross section (sample type: Mouse Liver, ion (formula + adduct): [C40H77O10P-H] 1-): 275.7 Å²

CCCCC/C=C\C/C=C\CCCCCCCC(=O)O[C@H](COC(=O)CCCCCCCCCCCCCCC)COP(=O)(O)OC[C@@H](O)CO [PG 16:0_18:2]
TIMS collisional cross section [2]: 273.4 Å²

CC/C=C\C/C=C\C/C=C\C/C=C\C/C=C\C/C=C\CCC(=O)O[C@H](COC(=O)CCCCCCC/C=C\CCCCCCC)COP(=O)(O)OC[C@@H](O)CO [PG 17:1@_22:6]
TIMS collisional cross section (sample type: Human plasma, ion (formula + adduct): [C45H75O10P+OAcO] 1-): 294.7 Å²

CCCCCC/C=C\CCCCCCCC(=O)O[C@H](COC(=O)CCCCCCC/C=C\CCCCCCCC)COP(=O)(O)OC[C@@H](O)CO [PG 18:1_16:1]
TIMS collisional cross section [2]: 276.9 Å²

CC/C=C\C/C=C\C/C=C\C/C=C\C/C=C\C/C=C\CCC(=O)O[C@H](COC(=O)CCCCCCC/C=C\CCCCCCCC)COP(=O)(O)OC[C@@H](O)CO [PG 18:1_22:6@]
TIMS collisional cross section (sample type: Mouse Liver, ion (formula + adduct): [C46H77O10P-H] 1-): 288.6 Å²

CCCCC/C=C\C/C=C\CCCCCCCC(=O)OC[C@H](COP(=O)(O)OC[C@@H](O)CO)OC(=O)CCCCCCC/C=C\CCCCCCCC [PG 18:2_18:1]
TIMS collisional cross section (sample type: Mouse Liver, ion (formula + adduct): [C42H77O10P-H] 1-): 281.4 Å²

CC/C=C\C/C=C\C/C=C\C/C=C\C/C=C\C/C=C\CCC(=O)O[C@H](COC(=O)CCCCCCC/C=C\C/C=C\CCCCC)COP(=O)(O)OC[C@@H](O)CO [PG 18:2_22:6]
TIMS collisional cross section (sample type: Mouse Liver, ion (formula + adduct): [C46H75O10P-H] 1-): 287.5 Å²

CCCCC/C=C\C/C=C\C/C=C\C/C=C\CCCC(=O)OC[C@H](COP(=O)(O)OC[C@@H](O)CO)OC(=O)CCCCCCC/C=C\CCCCCCCC [PG 20:4_18:1@]
TIMS collisional cross section (sample type: Mouse Liver, ion (formula + adduct): [C44H77O10P-H] 1-): 285.3 Å²

CCCCC/C=C\C/C=C\C/C=C\C/C=C\CCCC(=O)OC[C@H](COP(=O)(O)OC[C@@H](O)CO)OC(=O)CCCCCCC/C=C\C/C=C\CCCCC [PG 20:4_18:2]
TIMS collisional cross section (sample type: Mouse Liver, ion (formula + adduct): [C44H75O10P-H] 1-): 284.1 Å²

CC/C=C\C/C=C\C/C=C\C/C=C\C/C=C\C/C=C\CCC(=O)O[C@H](COC(=O)CCC/C=C\C/C=C\C/C=C\C/C=C\CCCCC)COP(=O)(O)OC[C@@H](O)CO [PG 20:4_22:6]
TIMS collisional cross section (sample type: Mouse Liver, ion (formula + adduct): [C48H75O10P-H] 1-): 291.4 Å²

CC/C=C\C/C=C\C/C=C\C/C=C\C/C=C\C/C=C\CCC(=O)OC[C@H](COP(=O)(O)OC[C@@H](O)CO)OC(=O)CCCCCCC/C=C\CCCCCC [PG 22:6@_16:1]
TIMS collisional cross section (sample type: Mouse Liver, ion (formula + adduct): [C44H73O10P-H] 1-): 283 Å²

CC/C=C\C/C=C\C/C=C\C/C=C\C/C=C\C/C=C\CCC(=O)OC[C@H](COP(=O)(O)OC[C@@H](O)CO)OC(=O)CCCCC/C=C\C/C=C\C/C=C\C/C=C\CCCCC [PG 22:6@_22:4]
TIMS collisional cross section (sample type: Mouse Liver, ion (formula + adduct): [C50H79O10P-H] 1-): 297.7 Å²

CC/C=C\C/C=C\C/C=C\C/C=C\C/C=C\C/C=C\CCC(=O)OC[C@H](COP(=O)(O)OC[C@@H](O)CO)OC(=O)CC/C=C\C/C=C\C/C=C\C/C=C\C/C=C\C/C=C\CC [PG 22:6_22:6]
TIMS collisional cross section (sample type: Mouse Liver, ion (formula + adduct): [C50H75O10P-H] 1-): 294.8 Å²

Reference: the supplement of paper PMC6965134
